Laboratory results reported in ChEMBL document CHEMBL1201862, “PubChem BioAssay data set” (2004).
Active and inactive are the calls of the source.

Experiments:
[1] = molecular target: T1, Zinc finger protein mex-5 (Caenorhabditis elegans, UniProt Q9XUB2); experiment: MEX-5/TCR-2 RNA interaction inhibitors, dose response, biochemical, C. elegans, fluorescence polarization (AID 1960)
T1 sequence (Q9XUB2 whole entry): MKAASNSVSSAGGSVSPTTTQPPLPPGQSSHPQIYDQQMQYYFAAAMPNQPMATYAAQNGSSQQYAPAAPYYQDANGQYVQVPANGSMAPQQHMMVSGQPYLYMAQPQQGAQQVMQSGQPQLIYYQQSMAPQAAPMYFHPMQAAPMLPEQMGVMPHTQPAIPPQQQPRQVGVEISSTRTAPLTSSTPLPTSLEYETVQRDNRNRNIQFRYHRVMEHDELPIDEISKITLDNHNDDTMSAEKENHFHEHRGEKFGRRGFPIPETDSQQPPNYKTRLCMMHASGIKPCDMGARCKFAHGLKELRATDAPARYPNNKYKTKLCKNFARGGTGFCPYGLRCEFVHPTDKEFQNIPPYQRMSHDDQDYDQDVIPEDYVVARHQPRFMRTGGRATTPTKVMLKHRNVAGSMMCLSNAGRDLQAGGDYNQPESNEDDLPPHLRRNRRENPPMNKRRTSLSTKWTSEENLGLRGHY

[2] = molecular target: T2, Corticotropin-releasing factor receptor 2/Corticotropin-releasing factor-binding protein (Homo sapiens, UniProt P24387+Q13324); experiment: activators of CRF receptor 2 with binding protein – uHTS hits, confirmation (AID 602473); type: functional; conditions: read-out: EC50_Mean
T2 sequence (Q13324 whole entry): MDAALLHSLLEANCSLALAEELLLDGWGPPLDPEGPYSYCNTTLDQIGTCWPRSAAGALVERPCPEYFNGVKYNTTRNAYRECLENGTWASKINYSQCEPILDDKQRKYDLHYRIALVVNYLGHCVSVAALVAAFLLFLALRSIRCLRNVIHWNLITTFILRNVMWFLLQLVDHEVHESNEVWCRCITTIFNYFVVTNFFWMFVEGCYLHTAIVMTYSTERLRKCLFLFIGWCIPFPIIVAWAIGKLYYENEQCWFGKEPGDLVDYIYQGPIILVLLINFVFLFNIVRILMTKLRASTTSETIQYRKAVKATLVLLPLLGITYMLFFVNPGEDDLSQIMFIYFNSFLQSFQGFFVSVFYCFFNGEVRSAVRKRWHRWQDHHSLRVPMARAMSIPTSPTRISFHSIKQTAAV
T2 sequence (P24387 whole entry): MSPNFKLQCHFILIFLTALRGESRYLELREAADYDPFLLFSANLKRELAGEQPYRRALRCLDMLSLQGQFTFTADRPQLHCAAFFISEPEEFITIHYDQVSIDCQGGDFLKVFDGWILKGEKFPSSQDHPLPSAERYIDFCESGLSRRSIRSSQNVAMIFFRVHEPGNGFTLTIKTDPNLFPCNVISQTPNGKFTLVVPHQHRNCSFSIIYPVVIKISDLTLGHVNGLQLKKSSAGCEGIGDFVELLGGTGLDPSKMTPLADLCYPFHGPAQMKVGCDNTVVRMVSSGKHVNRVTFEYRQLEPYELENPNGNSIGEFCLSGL

[3] = molecular target: Botulinum neurotoxin type F (Clostridium botulinum, UniProt P30996); experiment: High-throughput multiplex microsphere dose response for inhibitors of toxin protease, specifically Botulinum neurotoxin light chain F protease, compounds from Cherry Pick 01.; type: functional; conditions: read-out: EC50_MICROM
[4] = molecular target: Lethal factor (Bacillus anthracis, UniProt P15917); experiment: High-throughput multiplex microsphere dose response for inhibitors of toxin protease, specifically Lethal Factor protease, compounds from Cherry Pick 01.; type: functional; conditions: read-out: EC50_MICROM
[5] = molecular target: Botulinum neurotoxin type A (Clostridium botulinum (strain Hall / ATCC 3502 / NCTC 13319 / Type A), UniProt P0DPI1); experiment: High-throughput multiplex microsphere dose response for inhibitors of toxin protease, specifically Botulinum neurotoxin light chain A protease, compounds from Cherry Pick 01.; type: functional; conditions: read-out: EC50_MICROM
[6] = molecular target: T3, RNA-binding protein pos-1 (Caenorhabditis elegans, UniProt G5EF15); experiment: inhibitors of POS-1/mex-3 RNA binding, dose response, biochemical, fluorescence polarization (AID 1964);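 note: purified POS-1 fused to maltose binding protein made in E. coli; potency of compounds blocking POS-1 binding to fluorescent RNA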
T3 sequence (G5EF15 whole entry): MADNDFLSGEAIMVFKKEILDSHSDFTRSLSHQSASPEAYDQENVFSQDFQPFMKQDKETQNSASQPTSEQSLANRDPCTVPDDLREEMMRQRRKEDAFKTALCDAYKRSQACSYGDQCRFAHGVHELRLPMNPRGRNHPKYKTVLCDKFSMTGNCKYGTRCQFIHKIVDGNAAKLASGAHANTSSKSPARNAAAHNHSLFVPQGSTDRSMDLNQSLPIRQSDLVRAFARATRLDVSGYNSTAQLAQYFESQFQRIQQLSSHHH

[7] = molecular target: Homeodomain-interacting protein kinase 2 (Homo sapiens, UniProt Q9H2X6); type: functional;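 note: measured within a kinome-wide kinase profiling panel, HIPK2 being one panel member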
[8] = molecular target: T4, Interleukin-1 receptor-associated kinase 4 (Homo sapiens, UniProt Q9NWZ3); type: functional
T4 sequence (Q9NWZ3 whole entry): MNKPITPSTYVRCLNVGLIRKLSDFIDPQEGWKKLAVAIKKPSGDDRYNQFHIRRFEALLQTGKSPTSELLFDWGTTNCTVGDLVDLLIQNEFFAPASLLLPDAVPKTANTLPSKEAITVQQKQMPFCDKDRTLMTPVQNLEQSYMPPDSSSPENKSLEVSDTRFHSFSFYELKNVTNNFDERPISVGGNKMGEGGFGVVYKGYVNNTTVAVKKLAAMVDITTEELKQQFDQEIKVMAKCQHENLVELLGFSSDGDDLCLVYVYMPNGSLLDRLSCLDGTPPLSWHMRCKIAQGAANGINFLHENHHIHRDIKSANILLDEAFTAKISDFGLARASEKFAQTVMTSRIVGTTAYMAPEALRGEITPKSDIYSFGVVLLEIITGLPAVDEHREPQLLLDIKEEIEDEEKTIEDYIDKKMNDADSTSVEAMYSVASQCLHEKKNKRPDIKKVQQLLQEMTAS

[9] = molecular target: cAMP-dependent protein kinase catalytic subunit alpha (Homo sapiens, UniProt P17612); type: functional
[10] = molecular target: Cyclin-dependent kinase 7 (Homo sapiens, UniProt P50613); type: functional;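 note: value comes from a kinome-wide kinase profiling panel in which CDK7 is one member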
[11] = molecular target: Glycogen synthase kinase-3 beta (Homo sapiens, UniProt P49841); type: functional;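 note: value comes from a broad kinome profiling panel, with GSK3B as the panel member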
[12] = molecular target: Cyclin-dependent kinase 9 (Homo sapiens, UniProt P50750); type: functional;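 note: value from the CDK9 entry of a kinome-spanning kinase panel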
[13] = molecular target: Cell division cycle 7-related protein kinase (Homo sapiens, UniProt O00311); type: functional;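 note: value obtained from a kinome-wide kinase panel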
[14] = molecular target: Serine/threonine-protein kinase pim-1 (Homo sapiens, UniProt P11309); type: functional
[15] = molecular target: Dual specificity protein kinase CLK4 (Homo sapiens, UniProt Q9HAZ1); type: functional
[16] = molecular target: Cyclin-dependent kinase 19 (Homo sapiens, UniProt Q9BWU1); experiment: Navigating the Kinome. Panel member name: CDC2L6; type: functional
[17] = molecular target: Macrophage-stimulating protein receptor (Homo sapiens, UniProt Q04912); experiment: Navigating the Kinome. Panel member name: MST1R; type: functional
[18] = molecular target: Serine/threonine-protein kinase TAO1 (Homo sapiens, UniProt Q7L7X3); type: functional
[19] = molecular target: Glycogen synthase kinase-3 alpha (Homo sapiens, UniProt P49840); type: functional;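 note: GSK3A result taken from a broad kinome-wide kinase panel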
[20] = molecular target: Tyrosine-protein kinase JAK3 (Homo sapiens, UniProt P52333); type: functional
[21] = molecular target: Mitogen-activated protein kinase kinase kinase kinase 4 (Homo sapiens, UniProt O95819); type: functional
[22] = molecular target: Calcium/calmodulin-dependent protein kinase type II subunit alpha (Homo sapiens, UniProt Q9UQM7); experiment: Navigating the Kinome. Panel member name: CAMK2A; type: functional
[23] = molecular target: Mitogen-activated protein kinase 8 (Homo sapiens, UniProt P45983); type: functional;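 note: value comes from one member of a kinome-wide kinase profiling panel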
[24] = molecular target: Activin receptor type-1 (Homo sapiens, UniProt Q04771); experiment: Navigating the Kinome. Panel member name: ACVR1; type: functional
[25] = molecular target: G protein-coupled receptor kinase 5 (Homo sapiens, UniProt P34947); experiment: Navigating the Kinome. Panel member name: GPRK5; type: functional
[26] = molecular target: Death-associated protein kinase 3 (Homo sapiens, UniProt O43293); type: functional;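 note: measured as one member of a kinome-wide profiling panel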
[27] = molecular target: ALK tyrosine kinase receptor (Homo sapiens, UniProt Q9UM73); type: functional;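 note: ALK tested as one member of a kinase panel screen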
[28] = molecular target: Serine/threonine-protein kinase PAK 4 (Homo sapiens, UniProt O96013); type: functional;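 note: value obtained within a kinome profiling panel in which PAK4 was one of the panel members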
[29] = molecular target: Tyrosine-protein kinase Fyn (Homo sapiens, UniProt P06241); type: functional
[30] = molecular target: Cyclin-dependent kinase 5 (Homo sapiens, UniProt Q00535); type: functional;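 note: CDK5 measured as one member of a kinase profiling panel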
[31] = molecular target: Platelet-derived growth factor receptor alpha (Homo sapiens, UniProt P16234); experiment: Navigating the Kinome. Panel member name: PDGFRA; type: functional
[32] = molecular target: Tyrosine-protein kinase receptor TYRO3 (Homo sapiens, UniProt Q06418); type: functional;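 note: TYRO3 value obtained as one member of a kinome-wide profiling panel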
[33] = molecular target: Dual specificity tyrosine-phosphorylation-regulated kinase 1A (Homo sapiens, UniProt Q13627); type: functional;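 note: measured against DYRK1A as one member of a broad kinome profiling panel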
[34] = molecular target: Aurora kinase B (Homo sapiens, UniProt Q96GD4); type: functional
[35] = molecular target: Aurora kinase A (Homo sapiens, UniProt O14965); type: functional;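 note: value from the Navigating the Kinome kinase panel profiling, panel entry STK6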
[36] = molecular target: MAP kinase-interacting serine/threonine-protein kinase 2 (Homo sapiens, UniProt Q9HBH9); type: functional
[37] = molecular target: High affinity nerve growth factor receptor (Homo sapiens, UniProt P04629); type: functional;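 note: NTRK1 tested as one member of a kinome-wide profiling panel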
[38] = molecular target: Inhibitor of nuclear factor kappa-B kinase subunit epsilon (Homo sapiens, UniProt Q14164); experiment: Navigating the Kinome. Panel member name: IKBKE; type: functional

Sequence of Glycogen synthase kinase-3 beta (P49841 whole entry): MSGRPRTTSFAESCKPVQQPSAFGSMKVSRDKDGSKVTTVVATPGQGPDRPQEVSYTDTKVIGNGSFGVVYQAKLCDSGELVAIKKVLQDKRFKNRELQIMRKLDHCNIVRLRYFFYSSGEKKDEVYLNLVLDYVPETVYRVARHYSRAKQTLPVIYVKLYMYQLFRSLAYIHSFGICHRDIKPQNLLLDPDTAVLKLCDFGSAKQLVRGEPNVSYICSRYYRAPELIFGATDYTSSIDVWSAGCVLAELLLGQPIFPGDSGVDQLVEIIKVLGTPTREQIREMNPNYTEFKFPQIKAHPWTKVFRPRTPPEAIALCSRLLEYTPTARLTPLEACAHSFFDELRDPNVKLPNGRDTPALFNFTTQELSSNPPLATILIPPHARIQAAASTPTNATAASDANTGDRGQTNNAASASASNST
Sequence of Dual specificity protein kinase CLK4 (Q9HAZ1 whole entry): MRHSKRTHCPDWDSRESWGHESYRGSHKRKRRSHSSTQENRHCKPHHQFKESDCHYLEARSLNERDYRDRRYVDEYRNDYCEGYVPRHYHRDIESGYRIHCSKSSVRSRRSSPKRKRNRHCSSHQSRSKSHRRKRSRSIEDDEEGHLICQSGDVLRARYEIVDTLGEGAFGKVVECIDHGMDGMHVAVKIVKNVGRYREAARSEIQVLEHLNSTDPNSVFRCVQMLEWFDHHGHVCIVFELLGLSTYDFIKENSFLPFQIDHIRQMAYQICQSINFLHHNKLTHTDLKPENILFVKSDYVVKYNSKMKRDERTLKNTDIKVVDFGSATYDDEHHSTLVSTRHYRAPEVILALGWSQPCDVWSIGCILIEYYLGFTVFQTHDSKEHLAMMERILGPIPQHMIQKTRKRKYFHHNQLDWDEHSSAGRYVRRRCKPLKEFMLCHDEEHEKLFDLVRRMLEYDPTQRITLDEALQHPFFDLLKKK
Sequence of Serine/threonine-protein kinase pim-1 (P11309 whole entry): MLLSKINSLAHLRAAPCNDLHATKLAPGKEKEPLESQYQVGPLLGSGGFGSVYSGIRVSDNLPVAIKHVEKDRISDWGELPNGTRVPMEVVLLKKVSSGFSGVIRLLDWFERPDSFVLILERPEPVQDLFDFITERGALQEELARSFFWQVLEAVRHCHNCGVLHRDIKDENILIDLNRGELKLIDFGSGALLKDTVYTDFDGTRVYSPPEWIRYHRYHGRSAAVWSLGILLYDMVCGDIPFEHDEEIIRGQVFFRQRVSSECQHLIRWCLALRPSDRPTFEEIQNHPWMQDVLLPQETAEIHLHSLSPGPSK
Sequence of Mitogen-activated protein kinase kinase kinase kinase 4 (O95819 whole entry): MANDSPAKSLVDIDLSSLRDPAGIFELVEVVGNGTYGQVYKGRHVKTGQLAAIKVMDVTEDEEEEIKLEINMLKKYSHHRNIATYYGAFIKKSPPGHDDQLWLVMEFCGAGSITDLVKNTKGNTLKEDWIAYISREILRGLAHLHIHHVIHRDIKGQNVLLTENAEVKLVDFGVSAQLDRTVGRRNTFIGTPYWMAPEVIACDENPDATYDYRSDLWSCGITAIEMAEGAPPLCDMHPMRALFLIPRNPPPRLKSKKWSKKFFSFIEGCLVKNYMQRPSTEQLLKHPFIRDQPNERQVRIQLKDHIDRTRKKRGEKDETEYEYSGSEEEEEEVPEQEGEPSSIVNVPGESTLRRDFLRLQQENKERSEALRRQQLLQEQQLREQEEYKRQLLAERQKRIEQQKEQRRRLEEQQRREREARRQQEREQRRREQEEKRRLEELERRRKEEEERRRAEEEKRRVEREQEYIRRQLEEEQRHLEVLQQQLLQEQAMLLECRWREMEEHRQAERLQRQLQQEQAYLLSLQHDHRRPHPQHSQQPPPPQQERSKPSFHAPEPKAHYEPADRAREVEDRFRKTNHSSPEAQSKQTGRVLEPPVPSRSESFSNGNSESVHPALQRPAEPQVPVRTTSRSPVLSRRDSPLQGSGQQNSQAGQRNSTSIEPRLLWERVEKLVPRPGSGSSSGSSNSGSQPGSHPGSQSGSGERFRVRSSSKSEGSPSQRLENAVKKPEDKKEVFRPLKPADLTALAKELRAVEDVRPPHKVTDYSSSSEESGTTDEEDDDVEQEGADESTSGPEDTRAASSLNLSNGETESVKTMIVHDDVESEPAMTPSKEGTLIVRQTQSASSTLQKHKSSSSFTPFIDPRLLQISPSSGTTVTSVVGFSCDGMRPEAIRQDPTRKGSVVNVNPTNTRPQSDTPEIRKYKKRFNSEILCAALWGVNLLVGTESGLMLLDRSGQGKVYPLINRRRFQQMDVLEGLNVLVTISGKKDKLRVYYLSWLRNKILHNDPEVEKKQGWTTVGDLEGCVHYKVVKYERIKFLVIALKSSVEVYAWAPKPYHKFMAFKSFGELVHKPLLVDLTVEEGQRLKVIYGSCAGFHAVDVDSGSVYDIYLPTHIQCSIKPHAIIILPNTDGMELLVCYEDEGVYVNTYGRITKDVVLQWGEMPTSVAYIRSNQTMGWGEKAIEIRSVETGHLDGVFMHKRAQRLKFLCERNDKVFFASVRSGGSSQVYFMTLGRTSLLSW
Sequence of Glycogen synthase kinase-3 alpha (P49840 whole entry): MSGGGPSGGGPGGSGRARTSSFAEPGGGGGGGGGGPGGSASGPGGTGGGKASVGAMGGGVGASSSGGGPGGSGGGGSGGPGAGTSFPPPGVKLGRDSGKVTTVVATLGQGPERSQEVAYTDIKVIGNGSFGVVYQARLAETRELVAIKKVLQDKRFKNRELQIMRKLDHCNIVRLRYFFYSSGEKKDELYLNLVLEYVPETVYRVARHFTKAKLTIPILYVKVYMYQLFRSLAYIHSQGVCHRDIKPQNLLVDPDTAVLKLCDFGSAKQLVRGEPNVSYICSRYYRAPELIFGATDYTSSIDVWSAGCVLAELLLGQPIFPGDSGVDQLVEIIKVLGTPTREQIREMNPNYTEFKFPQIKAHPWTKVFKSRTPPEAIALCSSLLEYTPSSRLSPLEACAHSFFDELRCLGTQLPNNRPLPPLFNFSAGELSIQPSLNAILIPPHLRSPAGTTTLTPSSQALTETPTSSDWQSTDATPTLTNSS
Sequence of Cyclin-dependent kinase 7 (P50613 whole entry): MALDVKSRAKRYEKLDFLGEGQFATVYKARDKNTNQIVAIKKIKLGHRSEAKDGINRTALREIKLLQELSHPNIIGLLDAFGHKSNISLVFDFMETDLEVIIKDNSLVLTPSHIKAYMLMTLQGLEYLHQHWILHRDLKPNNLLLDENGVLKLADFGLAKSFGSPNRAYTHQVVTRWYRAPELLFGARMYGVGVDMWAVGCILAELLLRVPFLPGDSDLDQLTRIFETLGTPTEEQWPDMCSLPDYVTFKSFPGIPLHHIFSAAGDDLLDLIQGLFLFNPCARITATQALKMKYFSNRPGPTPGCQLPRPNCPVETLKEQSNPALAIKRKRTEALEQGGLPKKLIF
Sequence of Homeodomain-interacting protein kinase 2 (Q9H2X6 whole entry): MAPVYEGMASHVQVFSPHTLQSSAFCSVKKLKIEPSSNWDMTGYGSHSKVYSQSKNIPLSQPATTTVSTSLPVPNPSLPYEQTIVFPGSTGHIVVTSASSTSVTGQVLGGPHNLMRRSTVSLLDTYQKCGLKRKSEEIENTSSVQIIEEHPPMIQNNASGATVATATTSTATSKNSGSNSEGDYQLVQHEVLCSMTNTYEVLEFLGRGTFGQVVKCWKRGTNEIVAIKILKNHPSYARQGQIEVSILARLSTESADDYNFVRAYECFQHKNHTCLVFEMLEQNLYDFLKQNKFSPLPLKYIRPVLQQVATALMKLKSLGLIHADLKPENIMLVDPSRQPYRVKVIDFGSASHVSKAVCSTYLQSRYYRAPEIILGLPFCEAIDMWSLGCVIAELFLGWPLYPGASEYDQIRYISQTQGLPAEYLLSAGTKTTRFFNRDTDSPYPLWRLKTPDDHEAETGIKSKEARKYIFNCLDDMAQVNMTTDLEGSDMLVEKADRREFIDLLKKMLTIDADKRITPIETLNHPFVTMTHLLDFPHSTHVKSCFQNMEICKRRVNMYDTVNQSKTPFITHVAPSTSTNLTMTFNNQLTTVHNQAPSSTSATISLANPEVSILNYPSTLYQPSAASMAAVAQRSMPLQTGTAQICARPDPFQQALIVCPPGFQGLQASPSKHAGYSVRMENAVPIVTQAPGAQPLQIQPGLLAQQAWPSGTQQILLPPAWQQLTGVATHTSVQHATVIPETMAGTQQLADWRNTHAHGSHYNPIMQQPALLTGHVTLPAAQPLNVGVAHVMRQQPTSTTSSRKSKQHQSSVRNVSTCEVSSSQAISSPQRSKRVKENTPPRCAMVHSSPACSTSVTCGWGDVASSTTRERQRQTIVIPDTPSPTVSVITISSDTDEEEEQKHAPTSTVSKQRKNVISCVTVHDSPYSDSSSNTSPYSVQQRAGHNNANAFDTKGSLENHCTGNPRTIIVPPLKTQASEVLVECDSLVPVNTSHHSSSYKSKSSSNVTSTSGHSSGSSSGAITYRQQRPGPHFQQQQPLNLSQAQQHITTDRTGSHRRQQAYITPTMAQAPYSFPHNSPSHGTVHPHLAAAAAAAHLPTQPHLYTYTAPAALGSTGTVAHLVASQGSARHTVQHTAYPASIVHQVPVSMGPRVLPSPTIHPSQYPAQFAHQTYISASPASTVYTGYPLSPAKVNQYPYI
Sequence of Aurora kinase B (Q96GD4 whole entry): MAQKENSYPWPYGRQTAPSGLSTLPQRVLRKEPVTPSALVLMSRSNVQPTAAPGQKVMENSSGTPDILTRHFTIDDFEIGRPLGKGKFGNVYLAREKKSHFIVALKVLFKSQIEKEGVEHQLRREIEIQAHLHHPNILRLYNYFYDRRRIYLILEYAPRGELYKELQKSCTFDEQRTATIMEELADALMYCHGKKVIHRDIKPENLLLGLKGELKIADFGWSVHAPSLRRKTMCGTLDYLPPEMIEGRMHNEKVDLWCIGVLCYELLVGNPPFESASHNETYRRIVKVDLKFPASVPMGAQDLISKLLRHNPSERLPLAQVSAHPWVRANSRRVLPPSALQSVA

With `O=c1c(/C=C(\O)c2ccccc2)nc2ccccc2n1-c1ccccc1` the EC50 [1] was 6.1 µM (inconclusive), the EC50 [2] was 11.6 µM (active) and the EC50 [3] was 20 µM (inactive). For the same compound, the EC50 [4] was 20 µM (inactive), the EC50 [5] was 20 µM (inactive) and the EC50 [6] was 78.2 µM (inconclusive).

`COCCNc1cc(-c2c[nH]c3ncccc23)cc(Cl)n1` was tested, and the Ki [7] was 0.0631 µM (active), the Ki [8] was 3.98 µM (active) and the Ki [9] was 0.158 µM (active). The Ki [10] was 0.158 µM (active), the Ki [11] was 0.126 µM (active) and the Ki [12] was 0.2 µM (active). For the same compound, the Ki [13] was 0.002 µM (active) and the Ki [14] was 0.794 µM (active).

In the case of `O=C1CC(c2ccccc2)Cc2[nH]c3cc(Cl)ccc3c(=O)c21` (stereo unspecified), the Ki [15] is reported as 3.98 µM (active), the Ki [16] is reported as > 100 µM (inactive) and the Ki [14] is reported as 2.51 µM (active).

In the case of `CN(C)c1ccc(NC(=O)CC2Nc3ccccc3NC2=O)cc1` (stereo unspecified), the Ki [17] is reported as 0.398 µM (active), the Ki [18] is reported as > 6.31 µM (inactive) and the Ki [19] is reported as > 3.98 µM (inactive). The Ki [20] was > 5.01 µM (inactive), the Ki [10] was > 3.98 µM (inactive) and the Ki [21] was > 5.01 µM (inactive). For the same compound, the Ki [22] was > 3.98 µM (inactive), the Ki [23] was > 5.01 µM (inactive) and the Ki [24] was > 3.98 µM (inactive). The Ki [25] was > 3.98 µM (inactive), the Ki [26] was > 5.01 µM (inactive) and the Ki [27] was > 6.31 µM (inactive). For the same compound, the Ki [28] was > 5.01 µM (inactive), the Ki [29] was > 6.31 µM (inactive) and the Ki [14] was > 6.31 µM (inactive).

In the case of `CC(=O)n1nc(N)c2ccc(Br)cc21`, the Ki [30] is reported as 1.58 µM (active), the Ki [31] is reported as 2.51 µM (active) and the Ki [32] is reported as 2.51 µM (active).

In the case of `COc1nc(N)c(C#N)c(-c2ccc(Cl)cc2Cl)c1C#N`, the Ki [19] is reported as 2.51 µM (active), the Ki [15] is reported as 7.94 µM (active) and the Ki [11] is reported as 2.51 µM (active). For the same compound, the Ki [33] was 5.01 µM (active).

With `Cc1ccc(Nc2nccc(Nc3ccccc3C(=O)O)n2)cc1F` the Ki [7] was 0.00631 µM (active), the Ki [8] was 3.98 µM (active) and the Ki [34] was 0.00501 µM (active). For the same compound, the Ki [9] was > 7.94 µM (inactive), the Ki [15] was 0.0794 µM (active) and the Ki [11] was 0.00316 µM (active). For the same compound, the Ki [21] was 0.2 µM (active), the Ki [35] was 0.0158 µM (active) and the Ki [14] was 0.158 µM (active). For the same compound, the Ki [36] was 0.251 µM (active).

For `Nc1ncnc2c1N=C(c1ccc(NC(=O)Nc3ccc(F)c(C(F)(F)F)c3)cc1)CCN2`, the Ki [37] was 0.126 µM (active) and the Ki [38] was 3.16 µM (active).
